Test results: patent publication US20210392892A1, “COMPOSITIONS COMPRISING PYRIDINE CARBOXYLATE HERBICIDES AND ACETYL COA CARBOXYLASE (ACCASE) INHIBITOR HERBICIDES” (Corteva Agriscience LLC, priority 2018, published 2021)

Key:
Test in all cases: Greenhouse postemergence herbicidal effect (visual injury)
Format in all cases: in vivo
[1] = test system: ALOMY, Alopecurus myosuroides (blackgrass)
Description: (§1) Seeds of the desired test plant species were planted in a 90:10% v/v (volume/volume) mixture of PRO-MIX® BX (Premier Tech Horticulture, Quakertown, Pa., USA) and PROFILE® GREENS GRADE™ (Profile Products LLC, Buffalo Grove, Ill., USA) planting mixture, which typically has a pH of 5.2 to 6.2 and an organic matter content of at least 50 percent, in plastic pots with a surface area of 103.2 square centimeters (cm^2). In some aspects, to help ensure good germination and healthy plants, a fungicide treatment and/or other chemical or physical treatment was applied. The plants were grown for 7-36 days (d) in a greenhouse with an approximate 14-hour (h) photoperiod which was maintained at about 23° C. during the day and 22° C. during the night. Nutrients and water were added on a regular basis and supplemental lighting was provided with overhead metal halide 1000-Watt lamps as necessary. The plants were employed for testing when they reached the second or third true leaf stage.
(§2) Emulsifiable concentrates of each of each pyridine carboxylate herbicide (Compound A or Compound B) were prepared at 100 grams acid equivalent per liter (g ae/L). The emulsifiable concentrates also included a safener, cloquintocet-mexyl, at 120 grams active ingredient per liter (g ai/L), unless otherwise noted below. An aliquot of each emulsifiable concentrate was placed in a 25 mL glass vial and diluted with an aqueous mixture of 1.25% (v/v) ACTIROB® B esterified rapeseed oil (Bayer Crop Science, Research Triangle Park, N.C., USA) or MSO® Concentrate with LECI-TECH® methylated soybean oil (Loveland Products, Loveland, Colo., USA) to obtain concentrated stock solutions at the highest application rate for each herbicide, based upon a 12 milliliter (mL) application volume at a rate of 187 liters per hectare (L/ha). The concentrated stock solutions were further diluted with an aqueous mixture of 1.25% v/v ACTIROB® B or MSO® Concentrate with LECI-TECH® to obtain stock solutions at reduced application rates for each herbicide. Spray solutions of the herbicide combinations (Compound A or Compound B plus ACCase inhibitor herbicide) were prepared by adding weighed amounts or aliquots of the ACCase inhibitor herbicide to the stock solutions of Compound A or Compound B to form 12-mL spray solutions in two-way combinations.
(§3) The spray solutions were applied to the plant material with an overhead Mandel track sprayer equipped with 8002E nozzles calibrated to deliver 187 L/ha over an application area of 0.503 square meters (m^2) at a spray height of 18 inches (43 centimeters (cm)) above the average plant canopy. Control plants were sprayed in the same manner with the solvent blank. All pyridine carboxylate herbicide (component a) application rates are given as “g ae/ha” and all ACCase inhibitor herbicide (component b) application rates are given as “g ai/ha.”
(§4) The treated plants and control plants were placed in a greenhouse as described above and watered by sub-irrigation to prevent wash-off of the test compounds. After 20-22 d, the condition of the test plants as compared with that of the control plants was determined visually and scored on a scale of 0 to 100 percent where 0 corresponds to no injury and 100 corresponds to complete kill.

[2] = test system: STEME, Stellaria media (chickweed)
Description: as §1, §2, §3, §4

[3] = test system: HELAN, Helianthus annuus (common sunflower)
Description: as §1, §2, §3, §4

[4] = test system: POLCO, Polygonum convolvulus (wild buckwheat)
Description: as §1, §2, §3, §4

[5] = test system: SETFA, Setaria faberi (giant foxtail)
Description: as §1, §2, §3, §4

[6] = test system: SORVU, Sorghum vulgare (grain sorghum)
Description: as §1, §2, §3, §4

[7] = test system: VIOTR, Viola tricolor (wild pansy)
Description: as §1, §2, §3, §4

[8] = test system: KCHSC, Kochia scoparia (kochia)
Description: as §1, §2, §3, §4

[9] = test system: BRSNW, Brassica napus (winter rape)
Description: as §1, §2, §3, §4

[10] = test system: CYPES, Cyperus esculentus (nutsedge)
Description: as §1, §2, §3, §4

[11] = test system: GLXMA, Glycine max (soybean)
Description: as §1, §2, §3, §4

[12] = test system: AVEFA, Avena fatua (wild oat)
Description: as §1, §2, §3, §4

[13] = test system: ECHCG, Echinochloa crus-galli (barnyardgrass)
Description: as §1, §2, §3, §4

[14] = test system: CIRAR, Cirsium arvense (Canadian thistle)
Description: as §1, §2, §3, §4

[15] = test system: DIGSA, Digitaria sanguinalis (large crabgrass)
Description: as §1, §2, §3, §4

[16] = test system: RUMOB, Rumex obtusifolius (broad-leaf dock)
Description: as §1, §2, §3, §4

[17] = test system: LEFCH, Leptochloa chinensis (Chinese sprangletop)
Description: as §1, §2, §3, §4

[18] = test system: ABUTH, Abutilon theophrasti (velvetleaf)
Description: as §1, §2, §3, §4

[19] = test system: IPOHE, Ipomoea hederacea (ivyleaf morningglory)
Description: as §1, §2, §3, §4

[20] = test system: LOLMU, Lolium multiflorum (Italian ryegrass)
Description: as §1, §2, §3, §4

[21] = test system: LOLMG, Lolium multiflorum subsp. gaudini (annual ryegrass)
Description: as §1, §2, §3, §4

ZEAMX, Zea mays (maize) = test system: ZEAMX, Zea mays (maize)
Description: as §1, §2, §3, §4

[22] = test system: ORYSA, Oryza sativa (common rice)
Description: as §1, §2, §3, §4

[23] = test system: BRSNN, Brassica napus (spring rape); conditions: 70 g ai/ha
Description: as §1, §2, §3, §4

## Fluazifop [reference compound]
[1]; 105 g ai/ha
  % visual injury, Obs: 93%
[1]; ALOMY, Compound A 0 g/ha, Fluazifop 105 g/ha
  % visual injury, Obs: 85%
[2]; STEME, Compound A 0 g/ha, Fluazifop 105 g/ha
  % visual injury, Obs: 0%
[3]; HELAN, Compound A 0 g/ha, Fluazifop 105 g/ha
  % visual injury, Obs: 0%
[4]; POLCO, Compound A 0 g/ha, Fluazifop 105 g/ha
  % visual injury, Obs: 0%
[5]; 105 g ai/ha
  % visual injury, Obs: 90%
[5]; SETFA, Compound A 0 g/ha, Fluazifop 105 g/ha
  % visual injury, Obs: 85%
[6]; SORVU, Compound A 0 g/ha, Fluazifop 105 g/ha
  % visual injury, Obs: 100%
[7]; VIOTR, Compound A 0 g/ha, Fluazifop 105 g/ha
  % visual injury, Obs: 3%
[8]; KCHSC, Compound A 0 g/ha, Fluazifop 105 g/ha
  % visual injury, Obs: 0%
[9]; BRSNW, Compound A 0 g/ha, Fluazifop 105 g/ha
  % visual injury, Obs: 0%
[10]; 105 g ai/ha
  % visual injury, Obs: 5%
[10]; CYPES, Compound A 0 g/ha, Fluazifop 105 g/ha
  % visual injury, Obs: 0%
[11]; GLXMA, Compound A 0 g/ha, Fluazifop 105 g/ha
  % visual injury, Obs: 28%
[12]; 105 g ai/ha
  % visual injury, Obs: 93%
[12]; AVEFA, Compound A 0 g/ha, Fluazifop 105 g/ha
  % visual injury, Obs: 95%
[13]; 105 g ai/ha
  % visual injury, Obs: 95%
[13]; ECHCG, Compound A 0 g/ha, Fluazifop 105 g/ha
  % visual injury, Obs: 95%
[14]; CIRAR, Compound A 0 g/ha, Fluazifop 105 g/ha
  % visual injury, Obs: 5%
[15]; 105 g ai/ha
  % visual injury, Obs: 95%
[15]; DIGSA, Compound A 0 g/ha, Fluazifop 105 g/ha
  % visual injury, Obs: 95%
[16]; RUMOB, Compound A 0 g/ha, Fluazifop 105 g/ha
  % visual injury, Obs: 0%
[17]; 105 g ai/ha
  % visual injury, Obs: 100%
[17]; LEFCH, Compound A 0 g/ha, Fluazifop 105 g/ha
  % visual injury, Obs: 98%
[18]; ABUTH, Compound A 0 g/ha, Fluazifop 105 g/ha
  % visual injury, Obs: 0%
[19]; IPOHE, Compound A 0 g/ha, Fluazifop 105 g/ha
  % visual injury, Obs: 0%
[20]; 105 g ai/ha
  % visual injury, Obs: 80%
[20]; LOLMU, Compound A 0 g/ha, Fluazifop 105 g/ha
  % visual injury, Obs: 88%

## C#CCOC(=O)c1nc(-c2ccc3cc[nH]c3c2F)c(F)c(N)c1Cl [Compound B, propargyl 4-amino-3-chloro-5-fluoro-6-(7-fluoro-1H-indol-6-yl)pyridine-2-carboxylate]
[6]; 7.5 g ae/ha, with cloquintocet-mexyl
  % visual injury, Obs: 10%
[6]; 10 g ae/ha, with cloquintocet-mexyl
  % visual injury, Obs: 20%

## CCON=C(CC)C1=C(O)CC(c2c(C)cc(C)cc2C)CC1=O (stereo not shown) [Tralkoxydim, 2-[1-(ethoxyimino)propyl]-3-hydroxy-5-mesitylcyclohex-2-enone]
[21]; 100 g ai/ha
  % visual injury, Obs: 70%
[5]; 100 g ai/ha
  % visual injury, Obs: 40%
[6]; 100 g ai/ha
  % visual injury, Obs: 65%

## C#CCOC(=O)[C@@H](C)Oc1ccc(Oc2ncc(Cl)cc2F)cc1
[21]; 30 g ai/ha
  % visual injury, Obs: 15%
[5]; 30 g ai/ha
  % visual injury, Obs: 98%
ZEAMX, Zea mays (maize); 30 g ai/ha
  % visual injury, Obs: 90%
[22]; 30 g ai/ha
  % visual injury, Obs: 83%

## CCCC(=NOCC)C1=C(O)CC(CC(C)SCC)CC1=O (stereo not shown) [Sethoxydim, reference compound]
[2]; 70 g ai/ha
  % visual injury, Obs: 0%
[8]; 70 g ai/ha
  % visual injury, Obs: 0%
[23]
  % visual injury, Obs: 0%
[16]; 70 g ai/ha
  % visual injury, Obs: 0%

## COC(=O)[C@@H](C)Oc1ccc(Oc2ncc(C(F)(F)F)cc2Cl)cc1 [Haloxyfop-R-methyl, reference compound]
[5]; SETFA, Compound A 0 g/ha, Haloxyfop-R-methyl 70 g/ha
  % visual injury, Obs: 100%
[17]; LEFCH, Compound A 0 g/ha, Haloxyfop-R-methyl 70 g/ha
  % visual injury, Obs: 100%

## CCOC(=O)[C@@H](C)Oc1ccc(Oc2cnc3cc(Cl)ccc3n2)cc1 [Quizalofop-P-ethyl, reference compound]
[5]; SETFA, Compound A 0 g/ha, Quizalofop-P-ethyl 75 g/ha
  % visual injury, Obs: 100%
[17]; LEFCH, Compound A 0 g/ha, Quizalofop-P-ethyl 75 g/ha
  % visual injury, Obs: 100%

## CCSC(C)CC1CC(=O)C(C(CC)=NOC/C=C/Cl)=C(O)C1 (stereo not shown) [Clethodim, reference compound]
[2]; 70 g ai/ha
  % visual injury, Obs: 0%
[3]; 70 g ai/ha
  % visual injury, Obs: 0%
[4]; 70 g ai/ha
  % visual injury, Obs: 0%
[5]; 70 g ai/ha
  % visual injury, Obs: 90%
[6]; 70 g ai/ha
  % visual injury, Obs: 98%
[7]; 70 g ai/ha
  % visual injury, Obs: 0%
[8]; 70 g ai/ha
  % visual injury, Obs: 0%
[9]; 70 g ai/ha
  % visual injury, Obs: 0%
[11]; 70 g ai/ha
  % visual injury, Obs: 5%
[14]; 70 g ai/ha
  % visual injury, Obs: 0%
[16]; 70 g ai/ha
  % visual injury, Obs: 0%
[17]; 70 g ai/ha
  % visual injury, Obs: 95%
[18]; 70 g ai/ha
  % visual injury, Obs: 0%
[19]; 70 g ai/ha
  % visual injury, Obs: 0%

## Fenoxaprop
[21]; 46 g ai/ha
  % visual injury, Obs: 0%
[1]; 46 g ai/ha
  % visual injury, Obs: 0%
[5]; 46 g ai/ha
  % visual injury, Obs: 100%
ZEAMX, Zea mays (maize); 46 g ai/ha
  % visual injury, Obs: 100%
[10]; 46 g ai/ha
  % visual injury, Obs: 0%
[22]; 46 g ai/ha
  % visual injury, Obs: 35%
[12]; 46 g ai/ha
  % visual injury, Obs: 68%
[13]; 46 g ai/ha
  % visual injury, Obs: 100%
[15]; 46 g ai/ha
  % visual injury, Obs: 96%
[20]; 46 g ai/ha
  % visual injury, Obs: 5%

## CCc1cc(C)cc(CC)c1-c1c(OC(=O)C(C)(C)C)n2n(c1=O)CCOCC2 [Pinoxaden]
[21]; 30 g ai/ha
  % visual injury, Obs: 94%
[5]; 30 g ai/ha
  % visual injury, Obs: 10%
ZEAMX, Zea mays (maize); 30 g ai/ha
  % visual injury, Obs: 5%
[22]; 30 g ai/ha
  % visual injury, Obs: 99%
